According to ChEMBL document CHEMBL5696442, “Discovery of type II inhibitors of TGFβ-activated kinase 1 (TAK1) and mitogen-activated protein kinase kinase kinase kinase 2 (MAP4K2)” (J Med Chem, 2015):
Calls of active or inactive are those of the source. The calls are words filed in the database; no cut-off is given here.

What was measured:
[1] = target: Mitogen-activated protein kinase 8 (Homo sapiens, UniProt P45983); assay: Inhibition of JNK1 (unknown origin) at 10 uM by Ambit Kinomescan binding assay relative to control
[2] = target: Serine/threonine-protein kinase tousled-like 2 (Homo sapiens) (UniProt Q86UE8); assay: Inhibition of TLK2 (unknown origin) at 10 uM by Ambit Kinomescan binding assay
[3] = target: Serine/threonine-protein kinase 25 (Homo sapiens) (UniProt O00506); assay: Inhibition of YSK1 (unknown origin) at 10 uM by Ambit Kinomescan binding assay
[4] = target: DNA-PK/Ku70/Ku85 (Homo sapiens) (UniProt P78527+P12956+P13010); assay: Inhibition of DNAPK ATP labeling site harbouring KGGSWIQEINVAEKNWYPR in human A-375 cells at 0.5 uM by KiNativ Profiling analysis relative to control; format: cell-based
[5] = target: T1, Scaffold protein ILK (Homo sapiens) (UniProt Q13418); assay: Inhibition of ILK Protein Kinase Domain in human A-375 cells at 0.5 uM by KiNativ Profiling analysis relative to control; format: cell-based
T1 sequence (whole entry): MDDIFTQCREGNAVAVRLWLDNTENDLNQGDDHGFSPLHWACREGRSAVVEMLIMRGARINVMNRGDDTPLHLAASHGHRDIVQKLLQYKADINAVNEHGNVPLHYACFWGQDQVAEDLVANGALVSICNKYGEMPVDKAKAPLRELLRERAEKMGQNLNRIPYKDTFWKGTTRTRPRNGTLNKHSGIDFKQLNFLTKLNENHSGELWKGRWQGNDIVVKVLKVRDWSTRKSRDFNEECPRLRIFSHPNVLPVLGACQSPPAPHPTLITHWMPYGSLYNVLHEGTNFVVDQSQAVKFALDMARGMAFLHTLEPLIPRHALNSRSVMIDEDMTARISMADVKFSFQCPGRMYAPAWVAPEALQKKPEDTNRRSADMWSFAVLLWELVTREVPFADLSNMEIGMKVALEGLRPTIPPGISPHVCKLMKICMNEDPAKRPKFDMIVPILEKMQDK

[6] = target: Tyrosine-protein kinase ABL1 (Homo sapiens, UniProt P00519); assay: Inhibition of nonphosphorylated ABL1 (unknown origin) at 1 uM by Ambit Kinomescan binding assay relative to control
[7] = target: Aurora kinase B (Homo sapiens) (UniProt Q96GD4); assay: Inhibition of AURKB (unknown origin) at 1 uM by Ambit Kinomescan binding assay relative to control
[8] = target: Serine/threonine-protein kinase 38-like (Homo sapiens) (UniProt Q9Y2H1); assay: Inhibition of NDR2 Lys1 labeling site harbouring KDTGHIYAMKILR in human A-375 cells at 5 uM by KiNativ Profiling analysis relative to control; format: cell-based
[9] = target: Calcium/calmodulin-dependent protein kinase kinase 2 (Homo sapiens) (UniProt Q96RR4); assay: Inhibition of CaMKK2 Lys1 labeling site in human A-375 cells at 0.05 uM by KiNativ Profiling analysis relative to control; format: cell-based
[10] = target: Serine/threonine-protein kinase BRSK1 (Homo sapiens) (UniProt Q8TDC3); assay: Inhibition of BRSK1 (unknown origin) at 1 uM by Ambit Kinomescan binding assay relative to control; values are per cent of control
[11] = target: Ephrin type-B receptor 1 (Homo sapiens) (UniProt P54762); assay: Inhibition of EPHB1 (unknown origin) at 1 uM by Ambit Kinomescan binding assay relative to control; values are per cent of control
[12] = test system: Receptor-type tyrosine-protein kinase FLT3 (Homo sapiens), P36888 [N841I]; assay: Inhibition of FLT3 N841I mutant (unknown origin) at 1 uM by Ambit Kinomescan binding assay relative to control; values are per cent of control
[13] = target: Serine/threonine-protein kinase 4 (Homo sapiens) (UniProt Q13043); assay: Inhibition of MST1 Lys1 labeling site harbouring ETGQIVAIKQVPVESDLQEIIK in human A-375 cells at 0.05 uM by KiNativ Profiling analysis relative to control
[14] = target: Serine/threonine-protein kinase Nek6 (Homo sapiens) (UniProt Q9HC98); assay: Inhibition of NEK6 Lys2 labeling site harbouring VMHRDIKPANVFITATGVVK in human Huh-7 cell lysate at 1 uM by KiNativ Profiling analysis relative to control; format: subcellular
[15] = target: Ribosomal protein S6 kinase alpha-3 (Homo sapiens) (UniProt P51812); assay: Inhibition of RSK2 domain2 Lys2 labeling site harbouring TVEYLHAQGVVHRDLKPSNILYVDESGNPESIR in human Huh-7 cell lysate at 1 uM by KiNativ Profiling analysis relative to control; format: subcellular
Sequence of Ribosomal protein S6 kinase alpha-3 (Homo sapiens) (P51812 whole entry, the tested form may be a part): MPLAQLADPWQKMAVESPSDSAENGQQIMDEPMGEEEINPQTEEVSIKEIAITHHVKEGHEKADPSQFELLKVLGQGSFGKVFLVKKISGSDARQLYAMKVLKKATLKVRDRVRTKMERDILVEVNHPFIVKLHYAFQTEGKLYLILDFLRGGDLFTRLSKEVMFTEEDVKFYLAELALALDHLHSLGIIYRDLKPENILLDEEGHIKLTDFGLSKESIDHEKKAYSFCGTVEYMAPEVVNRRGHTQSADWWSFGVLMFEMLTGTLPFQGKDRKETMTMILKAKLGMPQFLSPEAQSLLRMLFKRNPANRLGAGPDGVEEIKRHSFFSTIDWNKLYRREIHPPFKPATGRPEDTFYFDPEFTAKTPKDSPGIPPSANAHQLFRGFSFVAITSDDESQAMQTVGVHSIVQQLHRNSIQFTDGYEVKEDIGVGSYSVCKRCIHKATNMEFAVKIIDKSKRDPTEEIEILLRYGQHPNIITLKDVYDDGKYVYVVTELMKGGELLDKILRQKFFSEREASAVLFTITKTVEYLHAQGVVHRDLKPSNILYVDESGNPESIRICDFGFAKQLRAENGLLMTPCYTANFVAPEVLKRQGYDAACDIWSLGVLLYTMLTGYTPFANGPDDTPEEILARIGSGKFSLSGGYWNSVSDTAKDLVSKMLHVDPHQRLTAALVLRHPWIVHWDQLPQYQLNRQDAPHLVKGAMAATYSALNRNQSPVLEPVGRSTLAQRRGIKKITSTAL

Sequence of Serine/threonine-protein kinase 38-like (Homo sapiens) (Q9Y2H1 2-464 limits assumed): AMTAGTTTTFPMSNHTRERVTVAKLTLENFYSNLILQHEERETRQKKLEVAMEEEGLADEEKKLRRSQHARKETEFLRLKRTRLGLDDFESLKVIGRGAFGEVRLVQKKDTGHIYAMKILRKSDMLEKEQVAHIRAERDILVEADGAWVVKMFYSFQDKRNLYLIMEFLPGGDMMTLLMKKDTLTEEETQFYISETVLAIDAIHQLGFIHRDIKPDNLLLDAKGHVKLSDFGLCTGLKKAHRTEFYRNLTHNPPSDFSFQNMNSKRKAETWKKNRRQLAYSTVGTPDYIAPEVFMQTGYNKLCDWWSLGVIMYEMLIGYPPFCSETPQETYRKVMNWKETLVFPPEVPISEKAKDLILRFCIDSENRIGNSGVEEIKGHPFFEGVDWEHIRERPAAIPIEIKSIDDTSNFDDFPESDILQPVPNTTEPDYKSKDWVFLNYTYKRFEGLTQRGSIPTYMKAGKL
Sequence of Serine/threonine-protein kinase tousled-like 2 (Homo sapiens) (Q86UE8 whole entry, looked up): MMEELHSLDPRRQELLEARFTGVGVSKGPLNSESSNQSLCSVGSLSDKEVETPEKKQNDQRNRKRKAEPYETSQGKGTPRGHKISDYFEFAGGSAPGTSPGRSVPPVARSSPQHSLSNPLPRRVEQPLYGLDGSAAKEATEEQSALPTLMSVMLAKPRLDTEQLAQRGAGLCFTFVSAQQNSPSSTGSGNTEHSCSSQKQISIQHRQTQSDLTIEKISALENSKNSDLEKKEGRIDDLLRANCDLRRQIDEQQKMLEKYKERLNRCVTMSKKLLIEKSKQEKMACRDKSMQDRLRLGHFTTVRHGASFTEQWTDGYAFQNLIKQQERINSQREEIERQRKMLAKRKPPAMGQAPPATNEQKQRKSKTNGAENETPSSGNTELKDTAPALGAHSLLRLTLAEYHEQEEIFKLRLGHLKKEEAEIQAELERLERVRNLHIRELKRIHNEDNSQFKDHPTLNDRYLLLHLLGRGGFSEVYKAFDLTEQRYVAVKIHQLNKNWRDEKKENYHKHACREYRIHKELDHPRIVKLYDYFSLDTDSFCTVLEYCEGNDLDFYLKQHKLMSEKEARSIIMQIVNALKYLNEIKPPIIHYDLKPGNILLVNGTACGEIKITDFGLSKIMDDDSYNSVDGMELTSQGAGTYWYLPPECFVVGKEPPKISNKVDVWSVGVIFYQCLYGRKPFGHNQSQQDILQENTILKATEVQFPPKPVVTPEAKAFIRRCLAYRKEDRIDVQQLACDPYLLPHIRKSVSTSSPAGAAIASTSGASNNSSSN
Sequence of Aurora kinase B (Homo sapiens) (Q96GD4 whole entry): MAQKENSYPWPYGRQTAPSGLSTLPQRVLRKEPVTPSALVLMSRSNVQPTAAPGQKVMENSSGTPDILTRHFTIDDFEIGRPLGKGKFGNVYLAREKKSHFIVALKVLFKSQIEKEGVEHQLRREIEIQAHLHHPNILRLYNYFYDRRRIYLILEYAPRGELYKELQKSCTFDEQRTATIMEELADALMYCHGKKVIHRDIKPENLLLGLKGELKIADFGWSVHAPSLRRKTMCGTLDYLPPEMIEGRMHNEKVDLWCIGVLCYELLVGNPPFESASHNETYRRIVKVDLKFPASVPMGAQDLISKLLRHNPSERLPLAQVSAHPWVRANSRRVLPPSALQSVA
Sequence of Mitogen-activated protein kinase 8 (P45983 whole entry): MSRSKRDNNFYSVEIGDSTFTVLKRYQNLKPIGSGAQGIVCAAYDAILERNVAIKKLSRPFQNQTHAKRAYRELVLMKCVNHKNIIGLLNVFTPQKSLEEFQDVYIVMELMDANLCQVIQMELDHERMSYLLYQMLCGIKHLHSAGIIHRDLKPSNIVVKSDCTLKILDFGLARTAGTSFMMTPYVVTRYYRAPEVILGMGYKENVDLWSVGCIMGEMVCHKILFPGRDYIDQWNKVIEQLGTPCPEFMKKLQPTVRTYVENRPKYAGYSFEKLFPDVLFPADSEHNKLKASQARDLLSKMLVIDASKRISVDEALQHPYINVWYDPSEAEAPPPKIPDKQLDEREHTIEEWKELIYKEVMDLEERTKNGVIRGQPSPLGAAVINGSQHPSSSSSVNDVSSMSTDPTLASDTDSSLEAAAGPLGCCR
Sequence of Tyrosine-protein kinase ABL1 (P00519 whole entry): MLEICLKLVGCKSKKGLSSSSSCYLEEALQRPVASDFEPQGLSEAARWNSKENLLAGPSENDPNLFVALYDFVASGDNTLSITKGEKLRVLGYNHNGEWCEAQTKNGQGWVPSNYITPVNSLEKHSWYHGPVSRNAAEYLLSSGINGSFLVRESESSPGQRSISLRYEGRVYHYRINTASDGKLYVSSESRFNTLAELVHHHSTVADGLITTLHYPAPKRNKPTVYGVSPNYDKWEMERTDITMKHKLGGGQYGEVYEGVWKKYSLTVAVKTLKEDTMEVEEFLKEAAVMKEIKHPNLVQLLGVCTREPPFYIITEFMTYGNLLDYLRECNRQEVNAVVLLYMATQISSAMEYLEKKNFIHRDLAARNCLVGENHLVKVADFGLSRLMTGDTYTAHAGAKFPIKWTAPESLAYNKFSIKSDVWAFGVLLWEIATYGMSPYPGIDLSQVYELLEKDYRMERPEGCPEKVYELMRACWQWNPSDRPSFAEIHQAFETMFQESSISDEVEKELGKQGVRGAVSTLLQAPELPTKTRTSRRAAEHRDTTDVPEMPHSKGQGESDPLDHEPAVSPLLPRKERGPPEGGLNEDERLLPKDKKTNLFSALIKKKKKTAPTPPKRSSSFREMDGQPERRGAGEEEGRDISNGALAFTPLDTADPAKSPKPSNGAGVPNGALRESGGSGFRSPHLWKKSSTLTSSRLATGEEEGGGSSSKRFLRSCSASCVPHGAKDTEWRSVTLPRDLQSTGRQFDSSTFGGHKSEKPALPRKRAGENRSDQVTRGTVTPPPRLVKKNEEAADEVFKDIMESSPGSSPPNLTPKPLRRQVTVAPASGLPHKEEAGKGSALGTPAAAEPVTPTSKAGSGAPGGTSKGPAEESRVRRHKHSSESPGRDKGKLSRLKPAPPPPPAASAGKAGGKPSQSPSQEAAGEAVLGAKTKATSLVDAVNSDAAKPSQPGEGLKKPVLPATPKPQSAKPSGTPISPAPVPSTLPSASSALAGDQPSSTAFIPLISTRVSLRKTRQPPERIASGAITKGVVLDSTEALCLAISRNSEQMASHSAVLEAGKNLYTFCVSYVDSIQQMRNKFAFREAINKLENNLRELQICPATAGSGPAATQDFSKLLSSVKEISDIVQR
Sequence of Calcium/calmodulin-dependent protein kinase kinase 2 (Homo sapiens) (Q96RR4 2-588 limits assumed): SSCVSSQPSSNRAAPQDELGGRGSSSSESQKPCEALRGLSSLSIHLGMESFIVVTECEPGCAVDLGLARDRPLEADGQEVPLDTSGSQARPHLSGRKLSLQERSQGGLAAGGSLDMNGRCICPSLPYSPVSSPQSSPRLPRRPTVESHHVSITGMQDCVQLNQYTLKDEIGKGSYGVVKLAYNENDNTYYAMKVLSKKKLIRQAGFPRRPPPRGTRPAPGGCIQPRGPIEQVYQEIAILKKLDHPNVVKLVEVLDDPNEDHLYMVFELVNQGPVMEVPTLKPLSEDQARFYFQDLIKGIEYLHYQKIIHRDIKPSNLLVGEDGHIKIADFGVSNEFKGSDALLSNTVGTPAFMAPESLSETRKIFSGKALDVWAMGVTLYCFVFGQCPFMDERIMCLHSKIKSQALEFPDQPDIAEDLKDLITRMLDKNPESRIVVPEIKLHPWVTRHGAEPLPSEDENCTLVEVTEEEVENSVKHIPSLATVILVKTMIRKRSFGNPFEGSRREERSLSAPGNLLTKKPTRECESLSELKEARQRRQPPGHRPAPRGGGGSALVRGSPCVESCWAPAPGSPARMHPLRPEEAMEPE
Sequence of Serine/threonine-protein kinase 4 (Homo sapiens) (Q13043 whole entry, looked up): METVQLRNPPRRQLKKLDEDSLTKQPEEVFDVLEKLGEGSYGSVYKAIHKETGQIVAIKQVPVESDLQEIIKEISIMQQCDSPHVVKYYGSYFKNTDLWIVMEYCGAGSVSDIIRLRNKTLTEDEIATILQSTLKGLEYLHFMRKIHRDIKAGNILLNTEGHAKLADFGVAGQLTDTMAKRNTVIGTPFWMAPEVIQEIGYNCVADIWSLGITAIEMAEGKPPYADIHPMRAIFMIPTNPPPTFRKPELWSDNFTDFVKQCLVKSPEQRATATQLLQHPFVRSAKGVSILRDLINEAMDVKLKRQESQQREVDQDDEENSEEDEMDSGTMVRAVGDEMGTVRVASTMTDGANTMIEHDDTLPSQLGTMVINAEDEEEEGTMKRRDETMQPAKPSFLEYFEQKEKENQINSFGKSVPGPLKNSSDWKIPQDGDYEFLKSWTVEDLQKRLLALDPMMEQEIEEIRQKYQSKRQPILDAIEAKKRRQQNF

`CCN1CCN(Cc2ccc(NC(=O)c3ccc(C)c(Oc4ccnc5[nH]ccc45)c3)cc2C(F)(F)F)CC1` was tested, and the inhibition [1] was 0%, the inhibition [2] was “inactive” and the inhibition [3] was “inactive”. The inhibition [4] was 13.7% and the inhibition [5] was 1.9%.
Work on `CCN1CCN(Cc2ccc(NC(=O)c3ccc(C)c(/C=C/c4cnc5[nH]ccc5c4OC)c3)cc2C(F)(F)F)CC1` yielded an inhibition [6] of 0%, an inhibition [7] of 65% and an inhibition [8] of 14.8%. For the same compound, the inhibition [9] was 3.5%, the residual activity [10] was 83% and the residual activity [11] was 11%. For the same compound, the residual activity [12] was 2.3% and the inhibition [13] was 11.9%.
With `CNc1cc(Oc2cc(C(=O)Nc3cc(N4CCN(C)CC4)cc(C(F)(F)F)c3)ccc2C)ncn1` the inhibition [14] was 19.4% and the inhibition [15] was 11.6%.
